Results taken from US6866861B1, “Method and composition for enhancing milk component concentrations” (Land O'Lakes, Inc., priority 1999, dated 2005).

System: cows
Experiment: Abomasal infusion of glycerol in cows, different cows (Example 5)
Format: in vivo, cow
Conditions: for Fat / Lactose / Total Solids / True Protein: 150 g/cow/day abomasal, average of 3 cows
Protocol: To determine the weight percent total solids, wet basis, in a sample, the actual weight of total solids is determined by analyzing the sample in accordance with Method #925.23 (33.2.09) of Official Methods of Analysis, Association of Official Analytical Chemists (AOAC) (16th Ed., 1995). The weight percent total solids, wet basis, is then calculated by dividing the actual weight of total solids by the actual weight of the sample. The weight percent of true protein, wet basis, for a particular sample is calculated after first determining the wet basis weight percent of total Kjeldahl nitrogen and the wet basis weight percent of non-protein nitrogen in the sample. The wet basis weight percent of total Kjeldahl nitrogen in the sample is determined using the method referenced above. The wet basis weight percent of non-protein nitrogen (NPN) in the sample is determined in accordance with Method #991.21 (33.2.12) of Official Methods of Analysis, Association of Official Analytical Chemists (AOAC) (16th Ed., 1995). The weight percent of true protein, wet basis, in the sample is then determined by subtracting the wet basis weight percent of non-protein nitrogen in the sample from the wet basis weight percent of total Kjeldahl nitrogen in the sample. To determine the weight percent lactose, wet basis, in a liquid sample, the weight of the liquid sample is first determined. The actual weight of lactose in the liquid sample may then be determined using analysis kit number 176-303, that is available from Boehringer-Mannheim of Indianapolis, Ind. in accordance with the procedural instructions included with analysis kit number 176-303. The weight percent lactose, wet basis, in the liquid sample is then calculated by dividing the actual weight of lactose in the liquid sample by the actual weight of the liquid sample. To determine the weight percent fat, wet basis, in a sample, the actual weight of fat in the sample is determined in accordance with Method #974.09 (33.7.18) of Official Methods of Analysis, Association of Official Analytical Chemists (AOAC) (16th Ed., 1995). The weight percent fat, wet basis, is then calculated by dividing the actual weight of fat in the sample by the actual weight of the sample. In this example, glycerol was abomasally infused into three different cows at a rate of 150 grams per cow per day during a 14 day test period. The cows used in this Example were different from the cows used in Example 4. The rations provided to the cows during the period extending from day 0, prior to abomasal infusion of glycerol, through day 14 of the test period were the same. The only difference in feeding of the cows between day 0 and days 1-14 of the test period were that during days 1-14 the cows were abomasally infused with the dosage of 150 grams of glycerol per cow per day. The glycerol was not combined with any other materials prior to being abomasally infused into the cattle. Milk from the three cows was collected and analyzed prior to infusion (on day 0) and also was collected and analyzed on the third, seventh and fourteenth day of the test period. The results presented in Table 5 below for each milk component for each particular day are averages for the milk collected from the three different cows. The net change for the different milk components presented in Table 5 was calculated by averaging the results of days 3, 7 and 14 for a particular milk component and subtracting the results presented for day 0 for the particular milk component.

[1] = milk, average of days 3, 7, 14 minus day 0

OCC(O)CO [glycerol]
weight percent of fat, true protein, lactose, and total solids in the milk (conclusion in words) (abomasal infusion, 14 day test period): net increase
Fat (milk, Day 3): 3.39 Wt %
Lactose (milk, Day 3): 4.86 Wt. %
Total Solids (milk, Day 3): 12.04 Wt. %
True Protein (milk, Day 3): 3.04 Wt. %
Fat (milk, Day 7): 3.25 Wt %
Lactose (milk, Day 7): 5.19 Wt. %
Total Solids (milk, Day 7): 12.17 Wt. %
True Protein (milk, Day 7): 2.98 Wt. %
Fat (milk, Day 14): 3.32 Wt %
Lactose (milk, Day 14): 4.87 Wt. %
Total Solids (milk, Day 14): 11.99 Wt. %
True Protein (milk, Day 14): 3.05 Wt. %
Fat, Net Change [1]: +0.25 Wt %
Lactose, Net Change [1]: +0.08 Wt. %
Total Solids, Net Change [1]: +0.44 Wt. %
True Protein, Net Change [1]: +0.10 Wt. %
